We go through 6 molecules from ChEMBL document CHEMBL4321883 (J Med Chem, 2020).

Structures are written as SMILES. Active and inactive are the calls of the source. The calls are words filed in the database; no cut-off is given here. A value given as a limit tells only on which side of the number the result lay.

For data set [1], the system named is Mus musculus. The data set is described as follows: Antihyperlipidemic activity in C57BL/6 mouse assessed as increase in HDL-C level at 50 mg/kg, ip qd administered as nanosuspension for 2 days measured 6 hrs post-last dose by LC-MS/MS analysis relative to control. Format: functional.
Data set [2] in a line: Plasma concentration in C57BL/6 mouse at 50 mg/kg, ip administered as nanosuspension measured after 24 hrs by LC-MS/MS analysis. Format: ADME, organism-based.
For data set [3], the system named is Mus musculus. Put plainly: Antihyperlipidemic activity in EL knock out C57BL/6 mouse assessed as increase in HDL-C level at 50 mg/kg, ip qd administered as nanosuspension for 2 days measured 6 hrs post-last dose by LC-MS/MS analysis relative to control. Format: functional, organism-based.
Data set [4] in a line: Plasma concentration in HL knock out C57BL/6 mouse at 50 mg/kg, ip qd administered as nanosuspension for 2 days measured 6 hrs post-last dose by LC-MS/MS analysis. Format: ADME, organism-based.
Data set [5] in a line: Plasma concentration in C57BL/6 mouse at 50 mg/kg, sc measured after 24 hrs by LC-MS/MS analysis. The data set is classed as ADME, organism-based.
Data set [6] concerns Mus musculus. Put plainly: Antihyperlipidemic activity in hCETP/apoB-100 dual transgenic C57BL/6 mouse assessed as effect on LDL-C level at 50 mg/kg, ip bid administered as nanosuspension for 2 days measured 6 hrs post-last dose by FPLC analysis. Format: functional, organism-based.
Data set [7] relates to Mus musculus. Put plainly: Antihyperlipidemic activity in hCETP/apoB-100 dual transgenic C57BL/6 mouse assessed as increase in HDL-C level at 50 mg/kg, ip bid administered as nanosuspension for 2 days measured 6 hrs post-last dose by FPLC analysis relative to control. Format: functional.
For data set [8], the system named is Mus musculus. The data set is described as follows: Induction of macrophage-mediated [3H]-cholesterol efflux in C57BL/6 mouse at 50 mg/kg, ip qd administered as nanosuspension for 3 days followed by [3H]-cholesterol addition on day 3 and measured after 2.5 hrs relative to control. The data set is classed as functional.
Data set [9] in a line: Plasma concentration in C57BL/6 mouse at 50 mg/kg, po measured after 24 hrs by LC-MS/MS analysis. Format: ADME, organism-based.
The nature of data set [10]: Plasma concentration in EL knock out C57BL/6 mouse at 50 mg/kg, ip qd administered as nanosuspension for 2 days measured 6 hrs post-last dose by LC-MS/MS analysis. Format: ADME, organism-based.
A short description of data set [11]: Plasma concentration in C57BL/6 mouse at 50 mg/kg, ip qd administered as nanosuspension for 2 days measured 6 hrs post-last dose by LC-MS/MS analysis. The data set is classed as ADME, organism-based.
The subject of data set [12] is Mus musculus. The data set is described as follows: Antihyperlipidemic activity in HL knock out C57BL/6 mouse assessed as increase in HDL-C level at 50 mg/kg, ip qd administered as nanosuspension for 2 days measured 6 hrs post-last dose by LC-MS/MS analysis relative to control. The data set is classed as functional.
Data set [13] deals with T1, Endothelial lipase (Homo sapiens, UniProt Q9Y5X9).
T1 sequence (Q9Y5X9 whole entry): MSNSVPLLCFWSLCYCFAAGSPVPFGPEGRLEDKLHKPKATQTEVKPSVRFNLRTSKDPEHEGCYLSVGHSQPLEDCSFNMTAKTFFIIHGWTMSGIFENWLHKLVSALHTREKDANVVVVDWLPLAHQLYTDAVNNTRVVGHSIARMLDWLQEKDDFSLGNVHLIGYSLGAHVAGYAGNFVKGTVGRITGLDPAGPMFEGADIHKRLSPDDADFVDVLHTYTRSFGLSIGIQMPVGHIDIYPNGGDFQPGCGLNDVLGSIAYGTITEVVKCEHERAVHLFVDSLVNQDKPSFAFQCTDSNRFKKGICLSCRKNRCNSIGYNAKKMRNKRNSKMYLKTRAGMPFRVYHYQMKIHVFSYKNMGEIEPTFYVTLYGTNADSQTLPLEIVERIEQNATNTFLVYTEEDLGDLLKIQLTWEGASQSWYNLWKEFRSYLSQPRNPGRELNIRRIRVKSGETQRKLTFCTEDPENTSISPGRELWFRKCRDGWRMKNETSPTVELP
The data set is described as follows: Inhibition of EL in human HT1080 cells using A10070 as substrate preincubated for 20 min followed by DMPG vesicle doped substrate addition and measured at 20 secs interval for 10 mins by fluorescence assay. The data set is classed as cell-based.

The target of data set [14] is T2, Hepatic triacylglycerol lipase (Homo sapiens, UniProt P11150).
T2 sequence (P11150 whole entry): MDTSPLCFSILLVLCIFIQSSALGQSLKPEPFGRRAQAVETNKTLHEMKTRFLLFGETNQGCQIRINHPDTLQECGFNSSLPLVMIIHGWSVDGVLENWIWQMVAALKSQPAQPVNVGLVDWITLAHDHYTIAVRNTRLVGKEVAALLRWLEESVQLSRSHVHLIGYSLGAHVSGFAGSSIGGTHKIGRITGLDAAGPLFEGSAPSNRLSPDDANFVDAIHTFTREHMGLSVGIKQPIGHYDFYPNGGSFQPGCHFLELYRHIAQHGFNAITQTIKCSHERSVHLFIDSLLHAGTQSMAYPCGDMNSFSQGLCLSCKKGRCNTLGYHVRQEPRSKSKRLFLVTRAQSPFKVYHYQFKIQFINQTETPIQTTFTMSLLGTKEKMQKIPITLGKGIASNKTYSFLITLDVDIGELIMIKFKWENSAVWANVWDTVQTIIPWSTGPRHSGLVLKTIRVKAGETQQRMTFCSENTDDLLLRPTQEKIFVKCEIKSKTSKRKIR
The data set is described as follows: Inhibition of human HL […] using A10070 as substrate preincubated for 20 min followed by DMPG vesicle doped substrate addition and measured at 20 secs interval for 10 mins by fluorescence assay. Format: cell-based.

In data set [15] the target is T1, Endothelial lipase. Put plainly: Inhibition of EL in human HT1080 cells using D31-POPC-HDL as substrate incubated for 2 hrs in presence of mouse plasma by LC/MS analysis. The data set is classed as cell-based.
In data set [16] the target is T1, Endothelial lipase. Put plainly: Inhibition of EL in human HT1080 cells using D31-POPC-HDL as substrate incubated for 2 hrs in presence of human serum by LC/MS analysis. Format: cell-based.
A short description of data set [17]: Metabolic stability in mouse liver microsomes assessed as compound remaining at 0.5 uM incubated for 10 mins. Format: ADME, Microsome. The settings on record: read-out: Stability. For orientation: Liver microsomes are vesicles of endoplasmic reticulum, rich in cytochrome P450 enzymes.
Data set [18] concerns the target T3, Endothelial lipase (Mus musculus, UniProt Q9WVG5).
T3 sequence (Q9WVG5 whole entry): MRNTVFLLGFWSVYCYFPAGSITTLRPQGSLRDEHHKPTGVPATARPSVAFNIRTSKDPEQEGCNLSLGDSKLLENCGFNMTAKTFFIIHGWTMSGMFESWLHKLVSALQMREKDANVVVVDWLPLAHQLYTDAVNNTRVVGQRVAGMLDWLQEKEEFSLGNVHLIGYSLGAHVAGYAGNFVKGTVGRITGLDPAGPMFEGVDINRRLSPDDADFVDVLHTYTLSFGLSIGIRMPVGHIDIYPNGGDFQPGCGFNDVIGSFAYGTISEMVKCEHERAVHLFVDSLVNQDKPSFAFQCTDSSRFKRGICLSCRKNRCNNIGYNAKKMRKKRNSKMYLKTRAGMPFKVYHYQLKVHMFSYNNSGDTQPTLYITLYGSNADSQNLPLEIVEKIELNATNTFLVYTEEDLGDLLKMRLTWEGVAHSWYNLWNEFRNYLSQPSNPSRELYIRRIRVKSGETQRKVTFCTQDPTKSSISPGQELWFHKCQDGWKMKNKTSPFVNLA
Put plainly: Inhibition of endothelial lipase in hepatic lipase knock-out mouse plasma. Format: cell-free.

Data set [19] in a line: Metabolic stability in human liver microsomes assessed as compound remaining at 0.5 uM incubated for 10 mins. The data set is classed as ADME, Microsome. Particulars: read-out: Stability.
Data set [20] is described as follows: AUC (0 to 24 hrs) in C57BL/6 mouse at 50 mg/kg, ip administered as nanosuspension measured after 24 hrs by LC-MS/MS analysis. More on the design: dose 50 mg/kg, time < 24 hr, route intraperitoneal. The settings on record: in vivo. The data set is classed as ADME, organism-based.
Data set [21] can be described thus: Cmax in C57BL/6 mouse at 50 mg/kg, ip administered as nanosuspension measured after 24 hrs by LC-MS/MS analysis. Particulars: in vivo. The data set is classed as ADME, organism-based. Also on record: dose 50 mg/kg, route intraperitoneal.
The species named for a further data set is Homo sapiens. The data set is described as follows: Selectivity index, ratio of IC50 for human HL expressed in […] cells to IC50 for EL in human HT1080 cells. Format: cell-based.
A short description of data set [22]: Metabolic stability in rat liver microsomes assessed as compound remaining at 0.5 uM incubated for 10 mins. The data set is classed as ADME, Microsome. Particulars: read-out: Stability.

Take `NS(=O)(=O)NCc1nnc(C(=O)c2nc3cc(-c4ccc5c(c4)CNC5=O)c(F)cc3s2)o1`: the Activity in the data set with Mus musculus [1] is recorded as 36.9 - 37%. This molecule displayed a concentration at 24 h in [2] of 460 nM.
With `NS(=O)(=O)NCc1nnc(C(=O)c2nc3ccc(-c4ccccc4)cc3s2)o1`, the result with Mus musculus [3] and in the data set on Mus musculus [6] was inactive. Besides, the results for the concentration at 6 h in data set [4], in [10] and in data set [11] were 11000 nM, 8500 nM and 520 nM, respectively. The concentration at 24 h was determined as 190 nM in [5], 500 nM in data set [2] and 250 nM in data set [9]. Moreover, the Activity in the data set with Mus musculus [1] is recorded as 56%; in the data set with Mus musculus [7], 36%; in the data set with Mus musculus [8] it was 53%; in the data set with Mus musculus [12], 31.7 - 32%.
For the molecule `NC(=O)NCc1nnc(C(=O)c2nc3ccc(-c4ccccc4)cc3s2)o1`, the IC50 (as a rule, the concentration at which inhibition is half-maximal) is 0.03 µM against Endothelial lipase [13], > 0.01 µM in data set [14], 1 µM at Endothelial lipase [15] and 1 µM on Endothelial lipase [16].
As to `CN(Cc1nnc(C(=O)c2nc3ccc(-c4ccccc4)cc3s2)o1)S(N)(=O)=O`, the IC50 was determined as 0.02 µM against Endothelial lipase [13], 0.003 µM in data set [14], 1 µM on Endothelial lipase [15] and 7 µM on Endothelial lipase [16].
On to `NS(=O)(=O)NCc1nnc(C(=O)c2nc3cc(-c4ccc(C(=O)NCC(F)(F)F)cc4)c(F)cc3s2)o1`, for which the remaining at 10 min, 0.5 µM in data set [17] worked out at 100%; in data set [19], 98%. Further, the IC50 against Endothelial lipase [13] is < 0.0005 µM; in data set [14], 0.004 µM; at Endothelial lipase [18] it was 0.2 µM; on Endothelial lipase [16], 0.2 µM.
On to `NS(=O)(=O)NCc1nnc(C(=O)c2nc3cc(F)c(C(=O)NCC(F)(F)F)cc3s2)o1`, for which the remaining at 10 min, 0.5 µM is > 80% in data set [17], 87% in data set [19] and > 80% in [22]. Moreover, the IC50 was < 0.0005 µM on Endothelial lipase [13], 0.004 µM in data set [14], 0.2 µM on Endothelial lipase [18] and 0.05 µM on Endothelial lipase [16]. The AUC(0-t) (in general, exposure summed from dosing to a finite time, without extrapolation to infinity) at 24 h in data set [20] was determined as 58 µM·h. In addition, the Activity with Mus musculus [1] was 37.8 - 38%. In [2], this molecule yielded a concentration at 24 h of 250 nM. The highest level in data set [21] (Cmax) was 7100 nM. The Ratio IC50 in the data set listed under Homo sapiens is 8.
